# What was measured:
# [1] = MAD study safety and tolerability; format: in vivo, human; conditions: QD 30, 60 and 120 mg/day for 10 days
# Protocol: MAD/Part 2: multiple ascending dose, randomized, placebo-controlled, double-blind; up to 5 cohorts, n=9/cohort; subjects in MAD will receive Compound 1 or the placebo. Subjects will undergo a mixed meal tolerance test (MMTT) and an SU challenge and euglycemic clamp procedure. The doses will not exceed the doses in the SAD. Doses will escalate from 30 mg to 120 mg.
# To evaluate the safety and tolerability of single and multiple doses of Compound 1.
# [2] = Fasting glucose, insulin and C-peptide, MAD; format: in vivo, human; conditions: 30-120 mg QD for 10 days
# From the text: Patients with congenital HI have fasting hypoglycemia due to excess endogenous insulin secretion. Metabolic biomarkers including glucose, insulin, C-peptide, and βhydroxybutyrate will be collected throughout both the SAD and MAD to assess the effect of single and multiple doses of Compound 1.
# [3] = test system: glucose stimulated insulin secretion; test: Intravenous glucose tolerance test (IVGTT), SAD; format: in vivo, human
# Protocol: The results from the IVGTT will help inform selection of the single dose that will be used in SAD 1b and SAD 1c and also to inform the doses used in the MAD.
# A summary of the procedure is as follows: Collect pre-IV bolus blood samples for measurement of PG, insulin, and C-peptide. At 1 hour after study drug dosing/Time 60 (±30 minutes) or nominal time, administer an IV bolus of glucose at 300 mg/kg in 20% solution, within 60 seconds (use the most recent body weight measurement for glucose dose). Collect post-IV bolus blood samples for measurement of PG, insulin, and C-peptide.
# [4] = test system: glyburide-induced hyperinsulinemic hypoglycemia; test: Glyburide-induced hyperinsulinemic hypoglycemia model in rats; format: in vivo, Sprague Dawley rats; conditions: for Blood glucose levels reached over 5 hours: male rats, 2 h after glyburide, vehicle 94 mg/dL
# Protocol: Sulfonylurea drugs, such as glyburide, inhibit KATP channels and can be used in rat preclinical models to mimic the disease state of congenital HI patients with KATP channel mutations.
# This model of glyburide-induced hyperinsulinemic hypoglycemia was used to assess the pharmacodynamic effects of Compound 1 after a single administration in male and female adult rats and male neonatal rats.
# Glyburide was administered to raise insulin levels and induce hypoglycemia in adult male Sprague Dawley rats.
# Two hours following glyburide administration, Compound 1 was given by oral gavage and blood glucose was monitored over 5 hours.
# human pancreatic islets = test: Insulin secretion in perifused human islets; format: cell-based; conditions: for Effect on glucose- and tolbutamide-stimulated insulin secretion: G16.7 and G16.7+Tolb
# Protocol: The activity of Compound 1 on insulin and glucagon secretion in human pancreatic islets from three healthy adult donors (Prodo Labs, Aliso Viejo, Calif.) was evaluated using a perifusion system that enables dynamic insulin and glucagon measurements from the same islet preparation in response to different stimuli. Specifically, the effects on glucose-stimulated and sulfonylurea (tolbutamide)-stimulated insulin secretion and arginine-stimulated glucagon secretion were investigated and compared to those of a maximally effective concentration of diazoxide. Islets were collected in culture media (Prodo Labs #PIM-S001GMP) supplemented with 5% human AB serum (Prodo Labs #PIM-ABS001GMP), 1% glutamine-glutathione (Prodo Labs #PIM-G001GMP) and an antibiotic cocktail of amphotericin B, ciproflaxin and gentamicin (Prodo Labs #PIM-3X001GMP) and plated at a density of 1500-3000 islet equivalents (IEQ) in 10-cm nontreated tissue culture dishes (Thomas Scientific #1182M59). Islets were cultured at 37° C., 5% CO2 and 95% humidity for 20 h. Dynamic insulin secretion assays were performed using a perifusion system, Peri5 (Biorep Technologies, FL. Glucose (Boston BioProducts #BM-675) at 3 mM (G3) or 16.7 mM (G16.7), or glucose at 16.7 mM plus 100 μM tolbutamide (Sigma #T0891; G16.7+Tolb) were prepared in perifusion buffer, PB=[24 mM NaHCO3 (Fisher Scientific #S233-500), 120 mM NaCl (Spectrum Chemical #S0155), 4.8 mM KCl (Fisher Scientific #P217-500), 2.5 mM CaCl2 (Fisher Scientific #C614-500), 1.2 mM MgCl2 (Sigma #M8266), 10 mM HEPES (Gibco #15630-080) and 0.1% BSA (EMD Millipore #12675-100GM)]. Various concentrations of Compound 1 and diazoxide (Sigma #D9035) were prepared in G16.7 or in G16.7+Tolb. […] Insulin concentration was quantified using the commercially-available Mercodia Insulin ELISA (Mercodia #10-1113-10) kit. […] The optical density of each well was determined at 450 nm in a Tecan M1000Pro (Tecan, Switzerland) multiplate reader. Insulin concentrations were calculated by regression to the standard curve using GraphPad Prism (GraphPad, San Diego, Calif.).
# [5] = single oral dose prior to IV glucose
structure (smiles),measurement,setting,value
"C[C@H](NC(=O)c1cnc(C#N)c(-c2cc(F)cc(F)c2)c1N1CC[C@H](N)C1)C(F)(F)F [Compound 1, 4-[(3S)-3-aminopyrrolidin-1-yl]-6-cyano-5-(3,5-difluorophenyl)-N-[(2S)-1,1,1-trifluoropropan-2-yl]pyridine-3-carboxamide]",Safety and tolerability,[1],generally safe and well tolerated
same,Fasting insulin and C-peptide levels,[2],suppressed
same,Fasting plasma glucose,[2],dose-dependent increase in fasting plasma glucose
same,% reduction in insulin AUC,[3]; 27 mg dose,about 22%
same,% reduction in insulin AUC,[3]; 60 mg dose,about 40%
same,% reduction in insulin AUC,[3]; 120 mg dose,about 47%
same,Insulin secretion in IVGTT,[3]; [5],dose-dependently suppressed insulin secretion
same,Plasma glucose in IVGTT,[3]; [5],rapid and sustained increase in plasma glucose levels
same,Blood glucose levels reached over 5 hours,[4]; 3 mg/kg oral,up to 111 mg/dL
same,Blood glucose levels reached over 5 hours,[4]; 10 mg/kg oral,≤ 134 mg/dL
same,Blood glucose levels reached over 5 hours,[4]; 30 mg/kg oral,≤ 203 mg/dL
same,Blood glucose levels compared to vehicle,"[4]; oral, 3-30 mg/kg",dose-dependently increased blood glucose levels
same,Minimum effective dose (significant increase in blood glucose AUC over 5 hours),"[4]; oral, single dose",10 mg/kg
same,Effect on glucose- and tolbutamide-stimulated insulin secretion,human pancreatic islets; 0.1 μM,intermediate effect
same,Effect on glucose- and tolbutamide-stimulated insulin secretion,"human pancreatic islets; 1 μM, both phases",strongest inhibitory effect
same,Insulin secretion in response to 16.7 mM glucose and tolbutamide,"human pancreatic islets; concentration dependent, islets from three healthy adult donors",inhibited insulin secretion

# Reference: US20220323427A1, “SOMATOSTATIN RECEPTOR TYPE 5 AGONIST FOR THE TREATMENT OF HYPERINSULINISM” (Crinetics Pharmaceuticals, Inc., priority 2021, published 2022)
